In ChEMBL document CHEMBL1121683, “Novel synthesis of (S)-1-[5-(benzoylamino)-1,4-dioxo-6-phenylhexyl]-L-proline and analogues: potent angiotensin converting enzyme inhibitors” (J Med Chem, 1981):

Assays:
Rattus norvegicus [1] = assay: Maximum effect of 30 mg/kg administered orally on mean aortic blood pressure in the conscious renal hypertensive rat; type: functional, Artery; conditions: route oral
Rattus norvegicus [2] = assay: Change in mean aortic blood pressure in the conscious renal hypertensive rat after oral administration of 30 mg/kg; type: functional, Artery
Rattus norvegicus [3] = assay: Time required after administration of 3 mg/kg of compound iv, for the AI response to return to 70% of the pretreatment control response; type: functional
Rattus norvegicus [4] = assay: Time required after administration of 30 mg/kg of compound po, for the AI response to return to 70% of the pretreatment control response; type: functional
Rattus norvegicus [5] = assay: Maximum inhibition of the angiotensin I challenge at 30mg/kg, po in conscious, normotensive rats; type: functional
Rattus norvegicus [6] = assay: Maximum inhibition of the angiotensin I challenge at 3 mg/kg, iv, in conscious, normotensive rats; type: functional
Rattus norvegicus [7] = assay: Time required after administration of 0.03 mg/kg of compound po, for the AI response to return to 70% of the pretreatment control response; type: functional
Rattus norvegicus [8] = assay: Time required after administration of 0.3 mg/kg of compound po, for the AI response to return to 70% of the pretreatment control response; type: functional
Rattus norvegicus [9] = assay: Time required after administration of 3 mg/kg of compound po, for the AI response to return to 70% of the pretreatment control response; type: functional
Rattus norvegicus [10] = assay: Maximum inhibition of the angiotensin I challenge at 0.03 mg/kg, po, in conscious, normotensive rats; type: functional
Rattus norvegicus [11] = assay: Maximum inhibition of the angiotensin I challenge at 0.3 mg/kg, po, in conscious, normotensive rats; type: functional
Rattus norvegicus [12] = assay: Maximum inhibition of the angiotensin I challenge at 3 mg/kg, po, in conscious, normotensive rats; type: functional
Rattus norvegicus [13] = assay: Maximum effect of 0.3 mg/kg of compound administered orally on mean aortic blood pressure in the conscious renal hypertensive rat; type: functional, Artery; conditions: route oral
Rattus norvegicus [14] = assay: Maximum effect of 3 mg/kg of compound administered orally on mean aortic blood pressure in the conscious renal hypertensive rat; type: functional, Artery; conditions: route oral
Rattus norvegicus [15] = assay: Change in mean aortic blood pressure in the conscious renal hypertensive rat after oral administration of 0.3 mg/kg; type: functional, Artery
Rattus norvegicus [16] = assay: Change in mean aortic blood pressure in the conscious renal hypertensive rat after oral administration of 3 mg/kg; type: functional, Artery
[17] = target: Angiotensin-converting enzyme (Homo sapiens, UniProt P12821); assay: Concentration required to inhibit the activity of Angiotensin I converting enzyme by 50%; type: protein assay, Cavia porcellus
Sequence of Angiotensin-converting enzyme (P12821 whole entry): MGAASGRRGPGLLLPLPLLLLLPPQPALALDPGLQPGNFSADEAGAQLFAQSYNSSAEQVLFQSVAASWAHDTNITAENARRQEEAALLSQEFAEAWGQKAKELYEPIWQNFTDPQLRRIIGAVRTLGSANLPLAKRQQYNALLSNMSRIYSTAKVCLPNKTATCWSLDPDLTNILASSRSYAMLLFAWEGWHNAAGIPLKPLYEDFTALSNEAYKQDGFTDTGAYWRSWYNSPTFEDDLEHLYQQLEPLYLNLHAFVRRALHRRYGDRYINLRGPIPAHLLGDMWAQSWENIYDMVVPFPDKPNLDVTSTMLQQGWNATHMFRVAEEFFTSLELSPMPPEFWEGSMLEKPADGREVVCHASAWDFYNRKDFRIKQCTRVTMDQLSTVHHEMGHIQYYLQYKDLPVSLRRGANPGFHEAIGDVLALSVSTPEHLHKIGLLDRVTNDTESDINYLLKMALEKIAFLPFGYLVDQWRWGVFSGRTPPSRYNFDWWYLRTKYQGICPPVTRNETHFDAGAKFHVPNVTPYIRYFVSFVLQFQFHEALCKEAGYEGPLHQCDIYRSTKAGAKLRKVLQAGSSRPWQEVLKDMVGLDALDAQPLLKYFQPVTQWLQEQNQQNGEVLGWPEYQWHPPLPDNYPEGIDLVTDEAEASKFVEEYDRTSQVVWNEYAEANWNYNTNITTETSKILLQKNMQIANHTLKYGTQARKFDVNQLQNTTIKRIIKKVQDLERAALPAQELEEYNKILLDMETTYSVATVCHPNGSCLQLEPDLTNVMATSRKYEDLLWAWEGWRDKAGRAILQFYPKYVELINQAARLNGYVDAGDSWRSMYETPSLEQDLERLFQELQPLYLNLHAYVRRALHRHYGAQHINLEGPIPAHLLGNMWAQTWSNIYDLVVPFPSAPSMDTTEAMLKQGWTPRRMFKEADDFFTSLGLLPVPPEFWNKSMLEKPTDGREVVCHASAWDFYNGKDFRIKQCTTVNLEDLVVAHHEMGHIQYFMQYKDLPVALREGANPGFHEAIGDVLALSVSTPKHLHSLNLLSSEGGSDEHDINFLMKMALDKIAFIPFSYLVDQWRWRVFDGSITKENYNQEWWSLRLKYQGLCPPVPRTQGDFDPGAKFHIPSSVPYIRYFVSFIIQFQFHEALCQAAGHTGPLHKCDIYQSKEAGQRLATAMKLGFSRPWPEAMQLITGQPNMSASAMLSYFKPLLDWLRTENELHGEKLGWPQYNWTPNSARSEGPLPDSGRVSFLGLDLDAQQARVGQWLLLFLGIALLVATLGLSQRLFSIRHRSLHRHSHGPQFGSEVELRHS

Row | SMILES | Mean aortic blood pressure at maximum effect (Rattus norvegicus [1]) [mmHg] | Change (Rattus norvegicus [2]) [mmHg] | further results
1 | O=C(CCC(=O)C(Cc1ccccc1)NC(=O)c1ccccc1)NC(Cc1ccccc1)C(=O)OCc1ccccc1 (centres undefined) | 182 | -5 | –
2 | O=C(N[C@@H](Cc1ccccc1)C(=O)CCC(=O)N1CCC[C@H]1C(=O)O)c1ccccc1 | 178 | -12 | AI recovery time (Rattus norvegicus [3]): 34 min; AI recovery time (Rattus norvegicus [4]): 49 min; Max inhibition (Rattus norvegicus [5]): 48%; Max inhibition (Rattus norvegicus [6]): 57%
3 | C[C@H](CS)C(=O)N1CCC[C@H]1C(=O)O [CAPTOPRIL] | 85 | -101 | AI recovery time (Rattus norvegicus [7]): 80 min; AI recovery time (Rattus norvegicus [8]): 170 min; AI recovery time (Rattus norvegicus [9]): >240 min; Max inhibition (Rattus norvegicus [10]): 16%; Max inhibition (Rattus norvegicus [11]): 69%; Max inhibition (Rattus norvegicus [12]): 95%; Max effect (Rattus norvegicus [13]): 170 mmHg; Max effect (Rattus norvegicus [14]): 99 mmHg; Change (Rattus norvegicus [15]): -19 mmHg; Change (Rattus norvegicus [16]): -93 mmHg
4 | Cc1ccccc1C(=O)NC(Cc1ccccc1)C(=O)CCC(=O)N1CCC[C@H]1C(=O)OCc1ccccc1 (some centres undefined) | 175 | -20 | –
5 | O=C(NC(Cc1cccnc1)C(=O)CCC(=O)N1CCC[C@H]1C(=O)O)c1ccccc1 (some centres undefined) | 184 | -20 | –
6 | O=C(CCC(=O)N1CCC[C@H]1C(=O)O)C(Cc1ccccc1)NC(=O)C1CCCO1 (some centres undefined) | 163 | -23 | AI recovery time (Rattus norvegicus [4]): 10 min; Max inhibition (Rattus norvegicus [5]): 24%; Max inhibition (Rattus norvegicus [6]): 64%
7 | Cc1ccccc1C(=O)NC(Cc1ccccc1)C(=O)CCC(=O)N1CCC[C@H]1C(=O)O (some centres undefined) | 188 | -15 | –
8 | O=C(NC(Cc1ccc(OCc2ccccc2)cc1)C(=O)CCC(=O)N1CCC[C@H]1C(=O)O)c1ccccc1 (some centres undefined) | 195 | -5 | –
9 | O=C(NC(Cc1ccccc1)C(=O)CCC(=O)N1CCC[C@H]1C(=O)O)c1ccco1 (some centres undefined) | 184 | -1 | AI recovery time (Rattus norvegicus [3]): 52 min; AI recovery time (Rattus norvegicus [4]): 84 min; Max inhibition (Rattus norvegicus [5]): 32%; Max inhibition (Rattus norvegicus [6]): 84%
10 | O=C(NC(Cc1cccnc1)C(=O)CCC(=O)N1CCC[C@H]1C(=O)OCc1ccccc1)c1ccccc1 (some centres undefined) | 159 | -32 | –
11 | COc1ccc(CC(NC(=O)c2ccccc2)C(=O)CCC(=O)N2CCC[C@H]2C(=O)O)cc1OC (some centres undefined) | 174 | -5 | AI recovery time (Rattus norvegicus [3]): 24 min; AI recovery time (Rattus norvegicus [4]): 5 min; Max inhibition (Rattus norvegicus [5]): 33%; Max inhibition (Rattus norvegicus [6]): 74%
12 | O=C(NC(Cc1ccccc1)C(=O)CCC(=O)N1CCCC1)c1ccccc1 (centres undefined) | – | – | IC50 [17]: Not Active
13 | O=C(NC(Cc1ccccc1)C(=O)CCC(=O)N1CCC[C@H]1C(=O)O)OCc1ccccc1 (some centres undefined) | 175 | -22 | –
14 | O=C(NC(Cc1ccc(O)cc1)C(=O)CCC(=O)N1CCC[C@H]1C(=O)O)c1ccccc1 (some centres undefined) | 172 | -23 | AI recovery time (Rattus norvegicus [3]): 34 min; AI recovery time (Rattus norvegicus [4]): 24 min; Max inhibition (Rattus norvegicus [5]): 46%; Max inhibition (Rattus norvegicus [6]): 82%
15 | O=C(NC(Cc1ccccc1)C(=O)CCC(=O)N1CC(O)C[C@H]1C(=O)O)c1ccccc1 (some centres undefined) | 168 | -20 | –
16 | COC(=O)[C@@H]1CCCN1C(=O)CCC(=O)C(Cc1ccccc1)NC(=O)c1ccccc1 (some centres undefined) | 142 | -11 | Max effect (Rattus norvegicus [14]): 165 mmHg; Change (Rattus norvegicus [16]): -34 mmHg
17 | CC(=O)NC(Cc1ccccc1)C(=O)CCC(=O)N1CCC[C@H]1C(=O)O (some centres undefined) | 176 | -26 | –
